The source of these data is patent US20040044008A1, “Use of therapeutic benzamide derivatives” (priority 2000, published 2004).

Chain of human MTP (P55157 19-894): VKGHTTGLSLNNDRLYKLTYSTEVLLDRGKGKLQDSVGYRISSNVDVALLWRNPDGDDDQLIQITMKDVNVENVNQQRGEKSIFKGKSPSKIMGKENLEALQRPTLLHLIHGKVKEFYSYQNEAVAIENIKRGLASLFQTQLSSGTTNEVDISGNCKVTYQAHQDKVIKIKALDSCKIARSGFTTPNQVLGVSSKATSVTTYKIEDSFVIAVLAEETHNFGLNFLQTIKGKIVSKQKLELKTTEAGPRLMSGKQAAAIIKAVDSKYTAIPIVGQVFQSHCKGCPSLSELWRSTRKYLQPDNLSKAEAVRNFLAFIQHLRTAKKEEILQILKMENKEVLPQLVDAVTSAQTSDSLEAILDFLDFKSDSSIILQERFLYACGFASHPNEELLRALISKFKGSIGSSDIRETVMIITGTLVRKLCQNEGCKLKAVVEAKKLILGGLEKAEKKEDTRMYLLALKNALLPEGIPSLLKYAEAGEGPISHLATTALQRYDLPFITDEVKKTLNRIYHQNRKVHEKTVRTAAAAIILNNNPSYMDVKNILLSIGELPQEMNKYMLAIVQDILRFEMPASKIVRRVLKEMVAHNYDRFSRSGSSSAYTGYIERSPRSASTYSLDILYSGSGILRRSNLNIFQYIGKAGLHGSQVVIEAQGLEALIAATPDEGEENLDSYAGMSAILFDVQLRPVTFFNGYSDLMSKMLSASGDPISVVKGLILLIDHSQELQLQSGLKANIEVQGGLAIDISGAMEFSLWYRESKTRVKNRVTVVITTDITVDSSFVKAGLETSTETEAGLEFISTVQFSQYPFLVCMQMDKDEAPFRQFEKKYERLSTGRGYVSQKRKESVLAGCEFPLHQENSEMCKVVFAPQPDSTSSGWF
Chain of human MTP (P07237 18-508 partner): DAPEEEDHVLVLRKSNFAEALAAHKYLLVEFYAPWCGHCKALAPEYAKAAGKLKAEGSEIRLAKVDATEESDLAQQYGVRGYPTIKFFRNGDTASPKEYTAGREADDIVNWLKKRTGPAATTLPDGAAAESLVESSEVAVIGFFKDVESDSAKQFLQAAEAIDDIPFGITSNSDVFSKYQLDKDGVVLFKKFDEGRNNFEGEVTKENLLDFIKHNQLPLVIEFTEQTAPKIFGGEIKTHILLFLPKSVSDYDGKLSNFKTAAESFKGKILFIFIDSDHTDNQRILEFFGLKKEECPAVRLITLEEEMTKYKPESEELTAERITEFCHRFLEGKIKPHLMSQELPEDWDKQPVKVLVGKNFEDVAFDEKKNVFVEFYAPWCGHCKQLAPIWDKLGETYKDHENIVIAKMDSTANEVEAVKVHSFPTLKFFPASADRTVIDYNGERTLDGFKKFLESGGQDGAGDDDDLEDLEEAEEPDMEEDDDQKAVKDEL

The target of one data set is human MTP (Homo sapiens, UniProt P55157). The experiment in a line: human MTP activity assay (SPA, 3H-triolein transfer between liposomes). Format: biochemical. The note with it: human MTP-mediated 3H-triolein transfer from donor to acceptor liposomes, 25 min incubation at 37° C., streptavidin-SPA beads. From the text:
Such derivatives are clear to those skilled in the art, without undue experimentation, and with reference to the teaching of Burger's Medicinal Chemistry And Drug Discovery, 5th Edition, Vol 1: Principles And Practice, which is incorporated herein by reference. […] MTP inhibitors may be used in the treatment of non-insulin dependent diabetes mellitus, insulin resistance, coronary heart disease, prevention of stroke, pancreatitis, hypercholesterolemia, hypertriglyceridemia, hyperlipemia, mixed dyslipidemia, post-prandial hyperlipemia, atherosclerosis and obesity. The ability of the compounds of this invention to inhibit human MTP activity is measured by an in vitro assay where MTP transfers 3H-triolein between phosphatidylcholine liposomes. The specificity of the compounds of the invention is established by comparing the effects on apoB-100 and apoprotein A-1 production. A specificity of at least 100 is preferred.
The human MTP activity assay was established using SPA technology. Donor liposomes were prepared with 3H-triolein and phosphatidylcholine, while acceptor liposomes contained biotinylated phosphatidylethanolamine and phosphatidylcholine. The MTP-mediated 3H-triolein transfer onto acceptor liposomes was allowed by a 25 min incubation at 37° C., and quantified by the addition of streptavidin-SPA beads.
In general, IC50 refers to the concentration at which inhibition is half-maximal. Read a low IC50 as inhibition by little substance. “5-Methyl-4′-trifluoromethyl-biphenyl-2-carboxylic acid [-(4-(1H-pyrrol-2-ylmethyl)-piperazin-1-yl)-phenyl]-amide [Example 64]”: the IC50 turned out to be 0.26 nM. The same measure, in the same setting: under `Cc1ccc(C(=O)Nc2ccc(N3CCN(Cc4cccc(C#N)c4)CC3)cc2)c(-c2ccc(C(C)C)cc2)c1` [Example 2, 4′-Isopropyl-5-methyl-biphenyl-2-carboxylic acid [4-[4-(3-cyano-benzyl)-piperazin-1-yl]-phenyl]-amide] stands 0.3 nM; under `COc1cccc(C(=O)Nc2ccc(N3CCN(Cc4cccc(C#N)c4)CC3)cc2)c1-c1ccc(C(C)C)cc1` [Example 3, 4′-Isopropyl-6-methoxy-biphenyl-2-carboxylic acid [4-[4-(3-cyano-benzyl)-piperazin-1-yl]-phenyl]-amide], 0.2 nM; under `Cc1cccc(C(=O)Nc2ccc(N3CCN(Cc4cccc(C#N)c4)CC3)cc2)c1-c1ccc(C(C)C)cc1` [Example 4, 4′-Isopropyl-6-methyl-biphenyl-2-carboxylic acid [4-[4-(3-cyano-benzyl)-piperazin-1-yl]-phenyl]-amide], 0.2 nM. Same read-out and setting: the same measure for `Cc1cccc(C(=O)Nc2ccc(N3CCN(Cc4cccc(C#N)c4)CC3)cc2)c1-c1ccc(C(F)(F)F)cc1` [Example 5, 6-Methyl-4′-trifluoromethyl-biphenyl-2-carboxylic acid [4-[4-(3-cyano-benzyl)-piperazin-1-yl]-phenyl]-amide]: 0.2 nM; for `Cc1ccc(C(=O)Nc2ccc(N3CCN(Cc4cccc(-c5nc(C)no5)c4)CC3)cc2)c(-c2ccc(C(C)C)cc2)c1` [Example 6]: 0.3 nM; for `NC(=O)CN1CCN(c2ccc(NC(=O)c3ccccc3-c3ccc(C(F)(F)F)cc3)cc2)CC1` [Example 37, 4′-Trifluoromethyl-biphenyl-2-carboxylic acid [4-(4-carbamoylmethyl-piperazin-1-yl)-phenyl]-amide]: 8 nM. The same measure, in the same setting: the same measure for `COc1cccc(C(=O)Nc2ccc(N3CCN(CC(N)=O)CC3)cc2)c1-c1ccc(C(C)C)cc1` [Example 38, 4′-Isopropyl-6-methoxy-biphenyl-2-carboxylic acid [4-(4-carbamoylmethyl-piperazin-1-yl)-phenyl]-amide]: 0.3 nM; for `Cc1cccc(C(=O)Nc2ccc(N3CCN(CC(N)=O)CC3)cc2)c1-c1ccc(C(C)C)cc1` [Example 39, 4′-Isopropyl-6-methyl-biphenyl-2-carboxylic acid (4-(4-carbamoylmethyl-piperazin-1-yl)-phenyl]-amide]: 0.3 nM. Consider `Cc1noc(-c2cccc(CN3CCN(c4ccc(NC(=O)c5cccc(C)c5-c5ccc(C(C)C)cc5)cc4)CC3)c2)n1` [Example 61, 4′-Isopropyl-6-methyl-biphenyl-2-carboxylic acid (4-(4-(3-(3-methyl-[1,2,4]oxadiazol-5-yl)-benzyl)-piperazine-1-yl)-phenyl)-amide], for which the IC50 came out at 0.2 nM. In turn, `O=C(Nc1ccc(N2CCN(Cc3ccc[nH]3)CC2)cc1)c1ccccc1-c1ccc(C(F)(F)F)cc1` [Example 62, 4′-Trifluoromethyl-biphenyl-2-carboxylic acid [4-(4-(1H-pyrrol-2-ylmethyl)-piperazin-1-yl)-phenyl]-amide] had an IC50 of 0.3 nM. For the compound `Cc1ccc(C(=O)Nc2ccc(N3CCN(Cc4ccc[nH]4)CC3)cc2)c(-c2ccc(C(C)C)cc2)c1` [Example 63, 4′-Isopropyl-5-methyl-biphenyl-2-carboxylic acid [4-(4-(1H-pyrrol-2-ylmethyl)-piperazin-1-yl)-phenyl]-amide], the half-inhibitory concentration (IC50) was determined as 0.7 nM.

System in another data set: not given
Experiment: not given
Details: not given
One may read the melting point as the temperature of the solid-liquid transition. Compound `COc1cccc(C(=O)Nc2ccc(N3CCN(Cc4ccc[nH]4)CC3)cc2)c1-c1ccc(C(C)C)cc1` [Example 68, 4′-Isopropyl-6-methoxy-biphenyl-2-carboxylic acid [4-(4-(1H-pyrrol-2-ylmethyl)-piperazin-1-yl)-phenyl]-amide] came in with a melting point of 195 to 197 °C. `O=C(Nc1ccc(N2CCN(Cc3cccs3)CC2)cc1)c1ccccc1-c1ccc(C(F)(F)F)cc1` [Example 70, 4′-Trifluoromethyl-biphenyl-2-carboxylic acid [4-(4-thiophen-2-ylmethyl-piperazin-1-yl)-phenyl]-amide] returned a melting point of 181 to 183 °C.

`O=C(Nc1ccc(N2CCN(Cc3cc[nH]n3)CC2)cc1)c1ccccc1-c1ccc(C(F)(F)F)cc1` [Example 71, 4′-Trifluoromethyl-biphenyl-2-carboxylic acid {4-[4-(1H-pyrazole-3-ylmethyl)-piperazine-1-yl)-phenyl}-amide] had a melting point of 194 to 196 °C. On the same count and under the same terms, under `O=C(Nc1ccc(N2CCN(Cc3ccsc3)CC2)cc1)c1ccccc1-c1ccc(C(F)(F)F)cc1` [Example 72, 4′-Trifluoromethyl-biphenyl-2-carboxylic acid [4-(4-thiophen-3-ylmethyl-piperazin-1-yl)-phenyl]-amide] stands 187 to 189 °C. `O=C(Nc1ccc(N2CCN(Cc3c[nH]c4ccc(F)cc34)CC2)cc1)c1ccccc1-c1ccc(C(F)(F)F)cc1` [Example 73, 4′-Trifluoromethyl-biphenyl-2-carboxylic acid {4-[4-(5-fluoro-1H-indol-3-ylmethyl)-piperazin-1-yl]-phenyl}-amide] had a melting point of 168 to 170 °C. Same read-out and setting: the same measure for `COc1cccc(C(=O)Nc2ccc(N3CCN(Cc4cccc(-c5nc(C)no5)c4)CC3)cc2)c1-c1ccc(C(C)C)cc1` [Example 74, 4′-Isopropyl-6-methoxy-biphenyl-2-carboxylic acid (4-(4-(3-(3-methyl-[1,2,4]oxadiazol-5-yl)-benzyl)-piperazine-1-yl)-phenyl)-amide]: 180 to 182 °C. Compound `O=C(Nc1ccc(N2CCN(Cc3cccc(-c4noc(C(F)(F)F)n4)c3)CC2)cc1)c1ccccc1-c1ccc(C(F)(F)F)cc1` [Example 75, 4′-Trifluoromethyl-biphenyl-2-carboxylic acid (4-{4-[3-(5-trifluoromethyl-[1,2,4]oxadiazol-3-yl)-benzyl]-piperazin-1-yl}-phenyl)-amide] gave a melting point of 188 to 190 °C. Same read-out and setting: the same measure for `N#Cc1cccc(CN2CCN(c3ccc(NC(=O)c4ccccc4-n4cccc4)cc3)CC2)c1` [Example 85, N-{4-[4-(3-Cyano-benzyl)-piperazin-1-yl]-phenyl}-2-pyrrol-1-yl-benzamide]: 174 °C; for `N#Cc1cccc(CN2CCN(c3ccc(NC(=O)c4ccccc4-c4ccccn4)cc3)CC2)c1` [Example 86, N-{4-[4-(3-Cyano-benzyl)-piperazin-1-yl]-phenyl}-2-pyridin-2-yl-benzamide]: 169 to 171 °C.
